The text below walks through data of paper PMC11467779, “New anti-ovarian cancer quinolone derivatives acting by modulating microRNA processing machinery” (RSC Medicinal Chemistry, 2024).

In one series the test system is SKOV-3 cell line. The series is described as follows: Antiproliferative effect against the SKOV-3 cell line (GI50, cell count). As to conditions: for GI50: 50% cell growth inhibition, 72 hours of treatment, cell count, ND = activity not dose dependent. It counts as cell-based, human. As to the method:
(§1) SKOV-3, A2780 and A2780 CIS were cultured and maintained, as previously described,[50] at 37 °C in RPMI 1640 medium (Euroclone) supplemented with 10% fetal bovine serum (FBS; Euroclone), L-glutamine and penicillin/streptomycin (SIGMA-ALDRICH). OVCA433, HEK-293T, HeLa, HCCLM3, SK-Hep-1, MCF-7, A549 and HCT-116 cells were maintained in DMEM medium (Euroclone) containing 10% FBS (Euroclone), L-glutamine and penicillin/streptomycin (SIGMA-ALDRICH). Wi-38 cells were cultured in DMEM medium (Euroclone) supplemented with 10% FBS (Euroclone), L-glutamine and penicillin/streptomycin (SIGMA-ALDRICH), and 1% non-essential amino acids (NEAA; Euroclone). The cultures were maintained in a constant temperature incubator at 37 °C with 5% CO2. […] Once cell adhesion had been promoted, the compounds were added to the culture medium. After 72 hours of treatment, the cells were counted, and the data analyzed by linear regression. Each experiment was carried out three times in triplicate and three separate cell counts were made for each sample. […] Afterwards, the concentration range was narrowed to the relative value obtained in the first evaluation in order to obtain an accurate value.

Series [1] can be described thus: Cytotoxicity against non-tumor Wi-38 cells (CC50, cell count). It counts as cell-based. As to conditions: human, Wi-38 cells (non-tumor), 50% cytotoxicity concentration, 72 hours of treatment. The method, then: as §1
Another series concerns the target T1, hTopI (Homo sapiens, UniProt P11387).
T1 construct: endogenous in cells
The series is described as follows: Detection of hTOP1 cleavage complexes (cleavage assay). The note with it: 100 μM. It counts as cell-based. As to the method:
(§2) After compound treatments, 1 × 10^6 human cells in 35 mm dish per sample were washed with 1× phosphate-buffered saline (PBS) and lysed with 600 μL of DNAzol (Invitrogen), followed by precipitation with 300 μL of 200 proof ethanol. The nucleic acids were collected, washed with 75% ethanol, resuspended in 200 μL of TE buffer, and then heated at 65 °C for 15 min, followed by shearing with sonication (40% output for 10 s pulse and 10 s rest for four times). The samples were centrifuged at 15 000 rpm for 5 min at 4 °C, and the supernatant were collected. 1 μL of each sample was removed for spectrophotometric measurement of absorbance at 260 nm to quantitate DNA content (NanoDrop). 2 μg of each sample was subjected to slot-blot for immunoblotting using anti-hTOP1 antibody (BD Pharmingen, 556597) and anti-hTOP2α antibody (Santa Cruz biotechnology, 365916).[51]

A further series addresses T2, hTopII (Homo sapiens, UniProt P11388).
T2 construct: endogenous in cells
Kind of series: Detection of hTOP2α cleavage complexes (cleavage assay). The series is classed as cell-based. As to conditions: 100 μM. As to the method: as §2

For the next series, the system named is OVCA433. Kind of series: Antiproliferative effect against OVCA433 (GI50). The note with it: Homo sapiens, 72 hours of treatment, cell count. The series is classed as cell-based. The method, then: as §1
A further series has as its system A2780. The series is described as follows: Antiproliferative effect against A2780 (GI50). The series is classed as cell-based. The note with it: Homo sapiens, 72 hours of treatment, cell count. As to the method:
as §1

In series [2] the test system is shRNA to siRNA maturation (GAPDH mRNA). The series is described as follows: RNAi enhancing activity (shRNA to siRNA maturation, GAPDH mRNA in HEK-293T_shGAPDH). As to conditions: 50 μM, 48 hours. The series is classed as cell-based, human. As to the method:
HEK-293T_shSCR and HEK-293T_shGAPDH were treated with 50 μM of enoxacin and 33 for 48 hours before RNA extraction and expression analysis.
Lentiviral particles were produced by calcium phosphate transient transfection of HEK-293T cells with specific lentiviral plasmids (shGAPDH: TRCN0000445616 and shSCR: TRCN0000015937 from SIGMA-ALDRICH) together with the packaging plasmids (pLP1and pLP2) and the envelope plasmid pLP/VSVG. For each lentiviral plasmid one 150 mm plate of HEK293T cells was used for transfection. After 14–16 hours the medium was replaced with complete medium supplemented with 1 mM sodium butyrate (SIGMA-ALDRICH). The collection of medium containing lentiviral particles occurs 48 h and 72 h after transfection; complete medium supplemented with sodium butyrate was added after the first collection. […]
Total RNA was extracted using the Direct-zol RNA MiniPrep kit (Zymo Research) with on-column DNase treatment, according to the manufacturer's instructions. Reverse transcription was carried out with SuperScript VILO cDNA Synthesis Kit (Life Technologies) and the cDNA samples were analyzed by qRT-PCR using PowerUp SYBR Green Master Mix (Thermo Fisher Scientific). For miR-21 expression analysis total RNA was retrotranscribed using miRCURY® LNA® RT Kit (Qiagen) and the cDNA was analyzed by using miRCURY® LNA® miRNA PCR Assay (Qiagen). […]

The test system of a further series is miR-21-5p biogenesis. Kind of series: miR-21-5p luciferase reporter (psi-R21 / psi-CTRL) in HeLa cells. The series is classed as cell-based, human. As to conditions: 50 μM, 6 hours. As to the method:
HeLa cells were transfected with 10 ng of psi-R21 or psi-CTRL using Lipofectamine™ 2000 (Thermo Fisher Scientific) and after 48 hours were treated with either enoxacin or 33 at 20 μM and 50 μM. After 6 hours Renilla luciferase (RLuc) and firefly luciferase (FLuc) activities were measured using the Dual-Luciferase® Reporter Assay System (Promega), following the manufacturer's instructions, and GloMax® Discover Microplate Reader (Promega).
The binding site for miR-21 was cloned into psiCHECK™-2 Vector (Promega), downstream the Renilla cDNA, by inverted PCR using the following oligonucleotides: 21MRE_FW […]; 21MRE_REV […]. The resulting construct was named psi-R21.
Background: In a reporter assay the amount or activity of a reporter protein is the signal.

A further series has as its system miR-21. Kind of series: miR-21 expression in HeLa cells (qRT-PCR). The series is classed as cell-based, human. The note with it: 50 μM, 6 hours. The method, then:
Total RNA was extracted using the Direct-zol RNA MiniPrep kit (Zymo Research) with on-column DNase treatment, according to the manufacturer's instructions. Reverse transcription was carried out with SuperScript VILO cDNA Synthesis Kit (Life Technologies) and the cDNA samples were analyzed by qRT-PCR using PowerUp SYBR Green Master Mix (Thermo Fisher Scientific). For miR-21 expression analysis total RNA was retrotranscribed using miRCURY® LNA® RT Kit (Qiagen) and the cDNA was analyzed by using miRCURY® LNA® miRNA PCR Assay (Qiagen). The oligonucleotides used are the following: GAPDH_FW […]; GAPDH_REV […]; ATP5O_FW […]; ATP5O_REV […]; hsa-miR-21-5p miRCURY LNA miRNA PCR Assay (YP00204230); U6 snRNA (v2) miRCURY LNA miRNA PCR Assay (YP02119464).
(In qPCR the cycle at which signal appears reflects the starting amount.)

For series [3], the system named is several cancer cell lines. Also on record: method as in PMID 21368194. As to conditions: wide panel of cancer cells; read-out: GI50 against several cancer cell lines; cited from earlier work.

Several values for one entry are separate records, joined by “and”; a condition that tells them apart may be missing. Equal values may be shown once.

T1 sequence (P11387 whole entry): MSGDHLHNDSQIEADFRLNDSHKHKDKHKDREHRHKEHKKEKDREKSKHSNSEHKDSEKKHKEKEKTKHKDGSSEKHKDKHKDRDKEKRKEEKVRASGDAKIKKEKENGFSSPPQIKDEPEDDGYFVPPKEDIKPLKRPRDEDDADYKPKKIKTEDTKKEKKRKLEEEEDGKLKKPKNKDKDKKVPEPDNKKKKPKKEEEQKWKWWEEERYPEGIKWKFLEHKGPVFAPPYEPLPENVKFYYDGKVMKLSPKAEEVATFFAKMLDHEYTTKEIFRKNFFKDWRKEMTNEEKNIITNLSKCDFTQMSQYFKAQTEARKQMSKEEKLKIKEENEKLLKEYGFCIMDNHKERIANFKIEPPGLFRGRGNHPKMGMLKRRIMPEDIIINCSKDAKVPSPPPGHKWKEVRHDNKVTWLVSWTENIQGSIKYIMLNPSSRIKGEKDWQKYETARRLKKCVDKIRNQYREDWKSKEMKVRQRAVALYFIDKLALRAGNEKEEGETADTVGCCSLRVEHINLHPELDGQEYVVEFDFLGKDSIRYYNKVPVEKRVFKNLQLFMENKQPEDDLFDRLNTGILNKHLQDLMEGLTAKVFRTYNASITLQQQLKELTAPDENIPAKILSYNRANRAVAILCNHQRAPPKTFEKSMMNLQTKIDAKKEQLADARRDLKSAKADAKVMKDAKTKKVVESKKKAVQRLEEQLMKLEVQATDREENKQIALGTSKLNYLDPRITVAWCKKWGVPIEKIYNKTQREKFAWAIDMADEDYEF
T2 sequence (P11388 whole entry): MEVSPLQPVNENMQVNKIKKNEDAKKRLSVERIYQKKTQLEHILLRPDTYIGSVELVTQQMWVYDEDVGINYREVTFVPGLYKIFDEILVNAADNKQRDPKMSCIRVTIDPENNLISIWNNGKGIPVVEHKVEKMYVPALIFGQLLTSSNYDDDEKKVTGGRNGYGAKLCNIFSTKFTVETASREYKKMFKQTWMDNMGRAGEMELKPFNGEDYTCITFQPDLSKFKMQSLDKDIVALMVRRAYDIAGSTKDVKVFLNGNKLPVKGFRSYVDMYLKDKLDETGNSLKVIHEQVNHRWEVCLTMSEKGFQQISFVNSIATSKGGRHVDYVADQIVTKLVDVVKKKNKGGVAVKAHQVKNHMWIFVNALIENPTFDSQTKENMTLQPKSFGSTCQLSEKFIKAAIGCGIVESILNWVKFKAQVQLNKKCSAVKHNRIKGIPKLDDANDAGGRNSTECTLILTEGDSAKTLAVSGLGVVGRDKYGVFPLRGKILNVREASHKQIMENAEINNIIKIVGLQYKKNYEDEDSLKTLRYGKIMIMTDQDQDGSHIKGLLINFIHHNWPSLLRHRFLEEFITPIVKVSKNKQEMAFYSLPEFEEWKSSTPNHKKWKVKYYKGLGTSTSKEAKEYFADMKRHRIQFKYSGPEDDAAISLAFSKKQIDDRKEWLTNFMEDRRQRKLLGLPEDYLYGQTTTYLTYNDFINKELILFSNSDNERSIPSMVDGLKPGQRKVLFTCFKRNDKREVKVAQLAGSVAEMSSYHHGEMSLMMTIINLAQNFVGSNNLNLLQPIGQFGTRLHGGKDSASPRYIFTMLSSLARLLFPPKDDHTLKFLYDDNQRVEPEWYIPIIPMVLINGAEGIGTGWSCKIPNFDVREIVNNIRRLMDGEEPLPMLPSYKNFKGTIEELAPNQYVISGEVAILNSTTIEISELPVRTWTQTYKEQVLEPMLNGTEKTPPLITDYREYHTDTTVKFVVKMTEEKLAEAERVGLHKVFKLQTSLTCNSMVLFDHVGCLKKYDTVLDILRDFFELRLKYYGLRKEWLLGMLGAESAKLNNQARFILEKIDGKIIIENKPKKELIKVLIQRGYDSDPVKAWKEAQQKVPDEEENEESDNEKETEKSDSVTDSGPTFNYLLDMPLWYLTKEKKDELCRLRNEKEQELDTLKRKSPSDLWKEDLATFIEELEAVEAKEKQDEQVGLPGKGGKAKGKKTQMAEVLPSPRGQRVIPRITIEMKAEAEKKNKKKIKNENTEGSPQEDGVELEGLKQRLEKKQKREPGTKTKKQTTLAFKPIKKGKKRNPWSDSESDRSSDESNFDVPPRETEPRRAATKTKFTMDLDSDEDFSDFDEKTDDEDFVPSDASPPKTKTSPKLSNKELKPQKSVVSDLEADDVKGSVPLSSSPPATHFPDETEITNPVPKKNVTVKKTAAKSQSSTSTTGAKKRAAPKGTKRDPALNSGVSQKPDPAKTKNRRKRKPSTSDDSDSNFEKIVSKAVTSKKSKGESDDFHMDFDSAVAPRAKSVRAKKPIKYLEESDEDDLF

Regarding `Cc1c(N2CCc3ccccc3C2)c(N)cc2c(=O)c(C(=O)O)cn(C3CC3)c12` [Compound 5], the GI50 (in general, the concentration giving 50% growth inhibition) was found to be 37.7 ± 3.38 µM with SKOV-3 cell line and 38 µM in the series on SKOV-3 cell line (Homo sapiens, SK-OV-3, 72 h). In the series on SKOV-3 cell line (versus enoxacin), the “GI50 SKOV-3, fold lower than enoxacin” value is “about 3 fold”. Also, the cytotoxic concentration (CC50) – broadly, the concentration at which the toxic effect on the cells reaches its halfway point – at 72 h in series [1] came to 38.5 ± 29 µM. Further, at hTopI, the “trapping/inhibition of hTopI (cleavage assay)” value is “did not trap human topoisomerases”. Also, the “trapping/inhibition of hTopII (cleavage assay)” value on hTopII is on record as “did not trap human topoisomerases”.

On to `CCn1cc(C(=O)O)c(=O)c2cc(F)c(N3CCNCC3)nc21` [Enoxacin, enoxacin, reference compound], for which the GI50 is 125 µM in the series with SKOV-3 cell line (Homo sapiens, SK-OV-3, 72 h); 118 ± 8.89 µM in the series on OVCA433; 142 ± 8.73 µM with A2780; ~125 µM and 125 µM in [3]. For the same compound, the CC50 at 72 h in series [1] came out at 216 ± 123 µM. Further, the “RNAi enhancing effect (GAPDH mRNA decrease)” value in [2] is “comparable”. In the series with miR-21-5p biogenesis, the “miRNA enhancing effect: Renilla luciferase activity, psi-R21 construct” value is given as “miRNA enhancing effect”. Further, the “miR-21 level in HeLa cells” value in the series on miR-21 is “Upregulation of miR-21”.
